The values that follow come from patent US20150011566A1, “N-PHENYLPIPERAZINE DERIVATIVES THAT ARE ANTAGONISTS OF A1A, A1D ADRENOCEPTORS AND 5-HT1A RECEPTORS FOR THE TREATMENT OF BENIGN PROSTATE HYPERPLASIA, PHARMACEUTICAL COMPOSITIONS CONTAINING THE SAME” (UNIVERSIDADE FEDERAL DO RIO DE JANEIRO-UFRJ, priority 2012, published 2015).

Like-named read-outs stand apart in the source and are kept apart here.

The target of one experiment is T1, α1A adrenoceptors (Oryctolagus cuniculus, UniProt O02824).
T1 construct: from tissue; host or cells: rabbit liver membranes
T1 sequence (O02824 1-466): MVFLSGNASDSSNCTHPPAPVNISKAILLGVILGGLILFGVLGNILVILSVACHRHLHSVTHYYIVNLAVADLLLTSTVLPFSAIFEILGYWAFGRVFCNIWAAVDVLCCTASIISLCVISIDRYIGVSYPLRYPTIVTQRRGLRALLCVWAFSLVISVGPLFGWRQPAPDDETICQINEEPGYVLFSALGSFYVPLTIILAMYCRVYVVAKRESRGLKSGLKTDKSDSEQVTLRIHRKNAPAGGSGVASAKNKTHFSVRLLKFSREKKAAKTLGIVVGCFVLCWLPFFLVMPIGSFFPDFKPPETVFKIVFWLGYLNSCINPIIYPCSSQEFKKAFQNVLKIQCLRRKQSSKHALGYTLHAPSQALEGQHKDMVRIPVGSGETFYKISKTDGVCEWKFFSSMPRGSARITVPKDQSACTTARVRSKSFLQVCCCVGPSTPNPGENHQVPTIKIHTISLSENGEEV
The experiment in a line: Binding of [3H]-prazosin to α1A adrenoceptors (rabbit liver membranes). The method, then: Following the protocol described previously in the literature, membrane preparations from rabbit liver homogenates were obtained. Such membrane preparations are enriched in adrenoceptor subtype α1A. The tissue obtained as described above (˜30 g) was naturally thawed, immersed in thawing solution (0.25 M sucrose, 1 mM EGTA and 5 mM Tris (pH 7.4)) freezing. Then, the tissue was transferred to a petri dish on ice containing solution for homogenizing liver (2 mM EDTA, 100 mM NaCl and 50 mM Tris (pH 7.4)) freezing. The liver was then carefully cut by ignoring the most fibrous part.
Then, the material was transferred into a beaker where with the aid of Ultra-Turrax homogenizer (speed 24,000 RPM), the tissue was homogenized with the same buffer solution at a ratio of 6 parts of the solution to 1 part material. The material was homogenized three times for 20 seconds; in the intervals the solution was allowed to stand for 1 minute on ice. Subsequently, the homogenate was subjected to centrifugation 10,000×g for 10 minutes at 4° C., yielding a supernatant which was subjected to ultracentrifugation 80,000×g for 40 minutes at 4° C. yielding a pellet. This pellet was resuspended in buffer solution without NaCl (1 mM EDTA and 50 mM Tris (pH 7.4)) and further subjected to ultracentrifugation in the same previous conditions. The pellet obtained was resuspended in this step storage solution (0.25 M sucrose, 1 mM EGTA and 5 mM Tris (pH 7.4)) with the aid of a manual type Dounce homogenizer and stored in aliquots at 300 μL liquid nitrogen. In all protocols for membrane preparations the dosage of protein were performed according to the method of LOWRY et al. (J. Biol. Chem. 193 (1):265-275, 1951).
The standardization of the assay was done as described in the literature. […] Assays were performed in triplicate.
In both assays, membrane preparations were incubated at 0° C. for 45 minutes. After the incubation period, the reaction was stopped by adding 4 mL of ice-cold wash buffer (50 mM Tris-HCl, pH 7.4) followed by rapid vacuum filtration on glass fiber filter (GMF 3 Filtrak®). The filters were washed four times with 4 ml of the same solution under vacuum to remove all free radioligand. Then the filters were dried and placed in vials containing 5 ml scintillation fluid (4% PPO, 0.1% POPOP w/v in toluene). The radioactivity retained on the filters was then determined in a liquid scintillation counter (Packard Tri-Carb 1600 TR).
This procedure aims to obtain a saturation curve with less expenditure of radioactive substances and biological materials. Since competition assays allow us to construct inhibition curves of specific binding of radioligand. The higher the concentration of competitor agent employed in this case the LDT's study, the greater the competition for specific receptors, decreasing the formation radioligand-receptor complex. This can be seen by the gradual decrease of radioactivity retained on the filters is detected by the counter liquid scintillation.
These values were converted to Ki values (competitive dissociation constant at equilibrium or inhibition constant) using the Cheng-Prusoff equation (Eq. 2).

The target of another experiment is T2, 5-HT1A receptors (Rattus norvegicus, UniProt P19327).
T2 construct: Intrinsic Activity at Native 5-HT1A Receptors; from tissue; host or cells: rat hippocampus membranes
T2 sequence (P19327 1-422): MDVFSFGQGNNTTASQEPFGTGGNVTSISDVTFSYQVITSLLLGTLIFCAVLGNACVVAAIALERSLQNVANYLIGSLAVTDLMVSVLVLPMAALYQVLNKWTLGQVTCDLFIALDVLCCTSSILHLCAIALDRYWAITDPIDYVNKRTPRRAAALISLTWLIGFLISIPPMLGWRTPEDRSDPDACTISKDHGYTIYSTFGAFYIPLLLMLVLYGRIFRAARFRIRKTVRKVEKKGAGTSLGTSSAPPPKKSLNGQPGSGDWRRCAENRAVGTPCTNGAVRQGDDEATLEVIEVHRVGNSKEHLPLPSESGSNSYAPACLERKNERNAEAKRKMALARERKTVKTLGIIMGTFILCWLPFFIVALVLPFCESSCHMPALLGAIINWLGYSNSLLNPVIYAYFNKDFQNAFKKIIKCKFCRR
The experiment in a line: Binding of [3H]p-MPPF with GTP to 5-HT1A receptors; intrinsic activity (Ki low/Ki high). To be noted: for pharmacological classification: from Ki low/Ki high; for Ki value ratios for low and high affinity receptor states: in words; for Ki: read-out: Ki low, antagonist radioligand [3H] p-MPPF in the presence of GTP; for Ki low/Ki high: estimate of intrinsic activity. The method, then:
Membrane preparations of rat hippocampus according to previously described by HALL et al (1985) and PEROUTKA (1986) were performed. The homogenization and centrifugation steps were performed identically to that described above for receptors α2A and 5-HT2A receptors.
The binding assays for the 5-HT1A receptors were performed as described previously in the literature and previously standardized in the laboratory through saturation experiments. […] (solvent for dilution of LDT's) for the determination of total binding, or 50 μL non-radioative serotonin at 10 μM to determine the non-specific binding (final volume of 500 μL). Assays were performed in triplicate. […] Assays were performed in triplicate.
After the incubation period, the reaction was stopped by adding 4 ml of ice-cold solution containing 5 mM Tris (pH 7.4), followed by vacuum filtration on glass fiber filter (GMF 3, Filtrak®) previously soaked with solution 0.5% polyethylenoimine. The filters were washed three times with 4 mL of ice-cold solution containing 5 mM Tris (pH 7.4) under vacuum to remove all free radioligand. Then the filters were dried and placed in vials containing 5 ml scintillation fluid (composition: 4% PPO, 0.1% POPOP w/p in toluene). The radioactivity retained on the filters was then determined in a liquid scintillation counter (Packard Tri-Carb 1600 TR). […] For these receptors were also determined the […] and Ki parameters.
The GTP presence displaces the GPCR to a state of low affinity (Lahti et al, 1992). The intrinsic activity of a substance can be estimated using GPCR agonist or antagonist radioligand appropriate to define the affinity of the substance in the state of high and low affinity receptor, respectively.

[1] abbreviates: Table 5, Cheng-Prusoff, read-out: α1A Ki.

Usually Ki stands for the dissociation constant of the complex between target and ligand, obtained from inhibition or displacement. Consider `COc1ccccc1N1CCN(CCc2ccccc2)CC1` [LDT 2], for which, at α1A adrenoceptors, the IC50 is 1.91e-08 M and the inhibition constant Ki was found to be 1.57e-08 M.
On α1A adrenoceptors, `COc1cccc(CCN2CCN(c3ccccc3OC)CC2)c1` [LDT 3] showed an IC50 of 5.62e-09 M and a Ki of 4.63e-09 M. Also, the pharmacological classification result at 5-HT1A receptors (Table 13) is given as “antagonist”. In addition, at 5-HT1A receptors, the “Ki value ratios for low and high affinity receptor states” value is reported as “close to the unity”.
As for `COc1ccc(CCN2CCN(c3ccccc3OC)CC2)cc1` [LDT 4], at α1A adrenoceptors, the IC50 was 1.07e-08 M and the affinity, expressed as Ki, was 8.81e-09 M.
`COc1ccc(CCN2CCN(c3ccccc3OC)CC2)cc1OC` [LDT 5]: on α1A adrenoceptors, the IC50 is 4.47e-09 M and the inhibition constant (Ki) was found to be 3.67e-09 M. Also, on 5-HT1A receptors (Table 13), the pharmacological classification result is “antagontist”.
On to `COc1ccccc1N1CCN(CCC2CCCCC2)CC1` [LDT 6], for which, at α1A adrenoceptors (Table 3, Cheng-Prusoff, read-out: Ki (M) High Affinity site), the inhibition constant Ki was 2.16e-09 M. Also, the IC50 at α1A adrenoceptors (read-out: log CI50 ± EPM (M) High Affinity site (converted)) was 2.63e-09 M.
Consider `CCOc1ccccc1N1CCN(CCc2ccc3c(c2)OCO3)CC1` [LDT 8], for which, at α1A adrenoceptors, the IC50 was 4.57e-09 M and the inhibitory constant (Ki) came to 3.76e-09 M. Further, on 5-HT1A receptors (Table 13), the pharmacological classification result is on record as “partial antagonist” and the Ki worked out at 0.62 nM. The “Ki value ratios for low and high affinity receptor states” value on 5-HT1A receptors was “close to the unity”.
Consider `CCN1CCN(c2ccccc2)CC1` [LDT 39], for which the “α1A log IC50 (M)” value on α1A adrenoceptors (Table 5) is −6.36 ± 0.21 M. Also, the Ki on α1A adrenoceptors (setting [1]) came to 3.74e-07 M.
On the same counts, the results for `CCN1CCN(c2ccccc2OC)CC1` [LDT 62] are −6.51 ± 0.2 M and 2.61e-07 M.
On the same counts, the results for `CCCN1CCN(c2ccccc2OC)CC1` [LDT 63] are −6.50 ± 0.08 M and 2.7e-07 M.
The like results for `CCCCN1CCN(c2ccccc2OC)CC1` [LDT 64] were, in that order, −6.84 ± 0.04 M and 1.24e-07 M.
At α1A adrenoceptors, `CCCCCN1CCN(c2ccccc2OC)CC1` [LDT 65] had an IC50 of 7.94e-08 M and an inhibition constant Ki of 6.7e-08 M. The “Ki low/Ki high” value at 5-HT1A receptors (Table 9) was 1.18.
On to `CCCCCCN1CCN(c2ccccc2OC)CC1` [LDT 66], for which the “α1A log IC50 (M)” value on α1A adrenoceptors (Table 5) is recorded as −7.29 ± 0.11 a M. Further, the inhibitory constant (Ki) at α1A adrenoceptors (setting [1]) was determined as 4.3e-08 M. Besides, at 5-HT1A receptors (Table 9), the inhibitory constant (Ki) is 9 nM and the “Ki low/Ki high” value was 1.80.
On the same counts, the results for `CCCCCCCN1CCN(c2ccccc2OC)CC1` [LDT 67] are −7.02 ± 0.12 a M, 8.1e-08 M, 6.7 nM and 0.37.
In the case of `CCCCCCCCN1CCN(c2ccccc2OC)CC1` [LDT 68], the “α1A log IC50 (M)” value on α1A adrenoceptors (Table 5) is on record as −7.35 ± 0.2 a M. Further, the inhibition constant Ki at α1A adrenoceptors (setting [1]) is 3.8e-08 M. For the same molecule, on 5-HT1A receptors (Table 9), the Ki came out at 3.1 nM and the “Ki low/Ki high” value is listed as 0.34.
Consider `CCOc1ccccc1N1CCN(CC)CC1` [LDT 69], for which, on α1A adrenoceptors (Table 5), the “α1A log IC50 (M)” value is listed as −7.41 ± 0.25 a M. The inhibition constant (Ki) on α1A adrenoceptors (setting [1]) turned out to be 3.3e-08 M.
Consider `CCN1CCN(c2ccccc2O)CC1` [LDT 70], for which the “α1A log IC50 (M)” value at α1A adrenoceptors (Table 5) was −6.45 ± 0.07 M. For the same molecule, the Ki at α1A adrenoceptors (setting [1]) is 3.04e-07 M.
